Laboratory results: patent US20230072421A1, “TARGETED RADIOPHARMACEUTICALS FOR THE DIAGNOSIS AND TREATMENT OF PROSTATE CANCER” (Bayer AS, priority 2019, published 2023)

Columns and labels:
VCaP cells = assay: Cell proliferation assay (CellTiter-Glo, 5-day exposure), VCaP; format: cell-based; settings: 4000 cells/well, Th-227 labelled at 375 kBq/nmol, mean of 1 to 6 experiments
Outline: (§1)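 Cells were plated (4000/well VCaP, 1000/well for the other lines), left overnight at 37 °C with 5% CO2, then exposed for 5 days to Thorium-227-labelled PSMA ligands. Viability before and after exposure was measured by CellTiter-Glo.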

LNCaP cells = assay: Cell proliferation assay (CellTiter-Glo, 5-day exposure), LNCaP; format: cell-based, human; settings: LNCaP, 1000 cells/well; Th-227 labelled at 375 kBq/nmol; 5-day exposure; mean of 1 to 6 experiments
Procedure: Inhibition of cell proliferation of Thorium-227 labeled PMSA SMOL ligands was tested different prostate cancer cell lines, namely 22Rv1, VCaP, C4-2 (all from ATCC, Manassas, Va., USA) and LNCaP (DMSZ, Braunschweig). Cells were seeded using the following conditions in 384 well plates (Corning) in 30 μl of growth media at 4000 cells/well for VCaP cells and 1000 cells/well for 22Rv1, C4-2 and LNCaP cells.
Cells were cultivated an incubator at 37° C. and 5% C02 over night. On the following days cells were treated in triplicates with serial dilutions of PSMA-SMOLs labeled with Th-227 at a specific activity of 375 kBq/nmol (RCP>70% as assessed by iTLC analysis; compounds where RCP was between 50-70% in individual experiments are marked with an * in the table) using a D300e Digital Dispenser (Tecan). In sister plates cell viability at treatment start (d=0) was determined using CellTiter-Glo® assay (CTG, Promega, Madison, Wis., USA), by adding 30 μl per well CTG solution, incubation for 10 min and reading of Luminescence in a PheraStarFSX instrument (BMG Labtech). After a 5-day exposure in the presenced of test compounds, cell viability of treated or untreated control cells was determined again using CellTiter-Glo® assay (Promega, Madison, Wis., USA). […] The DRC software is a Biobook Spreadsheet that was developed by Bayer AG and Bayer Business Services on the IDBS E-Workbook Suite platform (IDBS: ID Business Solutions Ltd., Guildford, UK).

C4-2 cells = assay: Cell proliferation assay (CellTiter-Glo, 5-day exposure), C4-2; format: cell-based; settings: C4-2, 1000 cells/well, Th-227 labelled at 375 kBq/nmol, mean of 1 to 6 experiments
Outline: as §1

Compound	Proliferation assay on cancer cell lines by TTCs Default Pivot #3 IC50 [kBq/mL] VCap 4000cells 375kBq/nmol (mean) (VCaP cells) [kBq/mL]	Proliferation assay on cancer cell lines by TTCs Default Pivot #3 IC50 [kBq/mL] LnCap 1000cells 375kBq/nmol (mean) (LNCaP cells) [kBq/mL]	Proliferation assay on cancer cell lines by TTCs Default Pivot #3 IC50 [kBq/mL] C4-2 1000cells 375kBq/nmol (mean) (C4-2 cells) [kBq/mL]
{N^6-[3-(isoquinolin-3-yl)-N-{(1r,4S)-4-[(2-{4,7,10-tris[(carboxy-kappaO)methyl]-1,4,7,10-tetraazacyclododecan-1-yl-kappa^2N^1,N^4}acetamido)methyl]cyclohexane-1-carbonyl}alanyl]-N^2-{[(1S)-1,3-dicarboxypropyl]carbamoyl}-L-lysinato(3−)}(^227Th)Thorium [Example 36-B-227Th]	0.75	0.16	3.88
O=C(O)CC[C@H](NC(=O)N[C@@H](CCCCNC(=O)[C@@H](Cc1ccc2cccnc2c1)NC(=O)[C@H]1CC[C@H](CNC(=O)C[N+]23CCN4CCN5CC[N+]6(CC2)CC(=O)[O][227Th-2]36([O]C(=O)C4)[O]C(=O)C5)CC1)C(=O)O)C(=O)O [Example 45-B-227Th, (3R,10S,14S)-1,4,12-trioxo-3-[(quinolin-7-yl)methyl]-1-{(1r,4S)-4-[(2-{4,7,10-tris[(carboxy-kappaO)methyl]-1,4,7,10-tetraazacyclododecan-1-yl-kappa^2N^1,N^4}acetamido)methyl]cyclohexyl}-2,5,11,13-tetraazahexadecane-10,14,16-tricarboxylato(3−)(^227Th)Thorium]	0.94	0.14	1.02
Cc1cc2c(c(=O)n1CC(=O)O)[O][227Th]13[O]c4c(cc(C)n(CC(=O)O)c4=O)C(=O)NCCN(CCCN(CCNC(=O)c4cc(C)n(CC(=O)O)c(=O)c4[O]1)CCNC(=O)c1cc(C)n(CC(=O)NCc4ccc(C(=O)N[C@@H](Cc5ccc6ccccc6c5)C(=O)NCCCC[C@H](NC(=O)N[C@H](CCC(=O)O)C(=O)O)C(=O)O)nc4)c(=O)c1[O]3)CCNC2=O [Example 25-C-D-227Th]	2.26	0.49	2.95
O=C(O)CC[C@H](NC(=O)N[C@@H](CCCCNC(=O)[C@@H](Cc1ccc2ccncc2c1)NC(=O)[C@H]1CC[C@H](CNC(=O)C[N+]23CCN4CCN5CC[N+]6(CC2)CC(=O)[O][227Th-2]36([O]C(=O)C4)[O]C(=O)C5)CC1)C(=O)O)C(=O)O [Example 42-B-227Th, (3R,10S,14S)-3-[(isoquinolin-7-yl)methyl]-1,4,12-trioxo-1-{(1r,4S)-4-[(2-{4,7,10-tris[(carboxy-kappaO)methyl]-1,4,7,10-tetraazacyclododecan-1-yl-kappa^2N^1,N^4}acetamido)methyl]cyclohexyl}-2,5,11,13-tetraazahexadecane-10,14,16-tricarboxylato(3−)(^227Th)Thorium]	0.70	0.10	0.72
O=C(O)CC[C@H](NC(=O)N[C@@H](CCCCNC(=O)[C@@H](Cc1ccc2cnccc2c1)NC(=O)[C@H]1CC[C@H](CNC(=O)C[N+]23CCN4CCN5CC[N+]6(CC2)CC(=O)[O][227Th-2]36([O]C(=O)C4)[O]C(=O)C5)CC1)C(=O)O)C(=O)O [Example 44-B-227Th, (3R,10S,14S)-3-[(isoquinolin-6-yl)methyl]-1,4,12-trioxo-1-{(1r,4S)-4-[(2-{4,7,10-tris[(carboxy-kappaO)methyl]-1,4,7,10-tetraazacyclododecan-1-yl-kappa^2N^1,N^4}acetamido)methyl]cyclohexyl}-2,5,11,13-tetraazahexadecane-10,14,16-tricarboxylato(3−)(^227Th)Thorium]	0.71	0.08	0.67
O=C(O)CC[C@H](NC(=O)N[C@@H](CCCCNC(=O)[C@@H](Cc1ccc2c(c1)CCCO2)NC(=O)[C@H]1CC[C@H](CNC(=O)C[N+]23CCN4CCN5CC[N+]6(CC2)CC(=O)[O][227Th-2]36([O]C(=O)C4)[O]C(=O)C5)CC1)C(=O)O)C(=O)O [Example 38-B-227Th, {N^6-[3-(3,4-dihydro-2H-1-benzopyran-6-yl)-N-{(1r,4S)-4-[(2-{4,7,10-tris[(carboxy-kappaO)methyl]-1,4,7,10-tetraazacyclododecan-1-yl-kappa^2N^1,N^4}acetamido)methyl]cyclohexane-1-carbonyl}-D-alanyl]-N^2-{[(1S)-1,3-dicarboxypropyl]carbamoyl}-L-lysinato(3−)}(^227Th)Thorium]	0.44	0.10	0.91
CNc1cc(C[C@@H](NC(=O)[C@H]2CC[C@H](CNC(=O)CN3CCN4CCN5CCN(CC3)CC(=O)[O][227Th]([O]C(=O)C4)[O]C(=O)C5)CC2)C(=O)NCCCC[C@H](NC(=O)N[C@@H](CCC(=O)O)C(=O)O)C(=O)O)cc2ccccc12 [Example 37-B-227Th, (3R,10S,14S)-3-{[4-(methylamino)naphthalen-2-yl]methyl}-1,4,12-trioxo-1-{(1r,4S)-4-[(2-{4,7,10-tris[(carboxy-kappaO)methyl]-1,4,7,10-tetraazacyclododecan-1-yl-kappa^2N^1,N^4}acetamido)methyl]cyclohexyl}-2,5,11,13-tetraazahexadecane-10,14,16-tricarboxylato(3−)(^227Th)Thorium]	0.87	0.13	1.19
COc1c(C[C@@H](NC(=O)c2ccc(CNC(=O)CN3CCN(CC(=O)[O-])CCN(CC(=O)[O-])CCN(CC(=O)[O-])CC3)cn2)C(=O)NCCCC[C@H](NC(=O)N[C@@H](CCC(=O)O)C(=O)O)C(=O)O)ccc2ccccc12.[227Th+4] [Example 33a-B-227Th, (3R,10S,14S)-3-[(1-methoxynaphthalen-2-yl)methyl]-1,4,12-trioxo-1-{5-[(2-{4,7,10-tris[(carboxy-kappaO)methyl]-1,4,7,10-tetraazacyclododecan-1-yl-kappa^2N^1,N^4}acetamido)methyl]pyridin-2-yl}-2,5,11,13-tetraazahexadecane-10,14,16-tricarboxylato(3−)(^227Th)Thorium]	1.22	0.20	4.63
